In US20150239889A1, “PYRAZOLOPYRIMIDINE COMPOUND” (MITSUBISHI TANABE PHARMA CORPORATION, priority 2012, published 2015):

How the values were obtained:
human HIF-PHD3 = biological target: T1, human HIF-PHD3 (Homo sapiens, UniProt Q9H6Z9); experiment: HIF-PHD inhibition assay (fluorescence polarization), human HIF-PHD3; format: biochemical; conditions: 2-oxoglutaric acid 166 μmol/L
T1 construct: purchased CrystalGenomics Ltd
In short: (§1)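 Compounds tested for enzyme inhibition by fluorescence polarization. Subtracting the reading taken before enzyme addition from the post-addition reading gave activity in mP.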

human HIF-PHD2 = biological target: T2, human HIF-PHD2 (Homo sapiens, UniProt Q9GZT9); experiment: HIF-PHD inhibition assay (fluorescence polarization), human HIF-PHD2; format: biochemical; conditions: 2-oxoglutaric acid 3.33 μmol/L
T2 construct: purchased CrystalGenomics Ltd
T2 sequence (Q9GZT9 2-426 limits assumed): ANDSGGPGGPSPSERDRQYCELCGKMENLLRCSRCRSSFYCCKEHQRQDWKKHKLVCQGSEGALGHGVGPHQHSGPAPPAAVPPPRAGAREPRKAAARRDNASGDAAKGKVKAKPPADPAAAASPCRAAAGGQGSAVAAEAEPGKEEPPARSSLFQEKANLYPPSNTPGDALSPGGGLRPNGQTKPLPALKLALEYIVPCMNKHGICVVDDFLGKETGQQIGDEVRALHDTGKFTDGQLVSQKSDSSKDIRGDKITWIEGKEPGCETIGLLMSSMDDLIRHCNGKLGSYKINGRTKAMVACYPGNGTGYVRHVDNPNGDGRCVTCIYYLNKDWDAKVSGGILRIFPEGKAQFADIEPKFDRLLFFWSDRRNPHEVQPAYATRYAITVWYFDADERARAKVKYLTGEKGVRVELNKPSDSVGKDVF
In short: as §1

Hep3B cells = experiment: EPO production assay (ELISA of culture supernatant); format: cell-based; conditions: Homo sapiens, 3 μmol/L test compound, 48 hours, relative to control (0.1% DMSO), read-out: EPO production stimulation rate with 3 μmol/L test compound
Procedure: The stimulatory effect of the compound onEPO production was determined as follows using Hep3B cells.
Cells were seeded on 96 well plates at 40000 cells/well, and the plate was incubated overnight in MEM medium containing 10% fetal bovine serum (FBS) at 37° C. under 5% CO2. The next day, the medium was replaced with MEM containing 0.5% FBS, followed by addition of test compound. The test compound was dissolved in dimethyl sulfoxide and added to the cell so that the final concentration of dimethyl sulfoxide was 0.1%. After incubation for additional 48 hours, the culture supernatant was collected, and EPO contained in the supernatant was determined using ELISA kit (EPO ELISA Kit 11-693-417-001, Roche Co.). The results were expressed as stimulation rate of EPO production (fold), which was calculated as the relative value of the EPO production with 3 μmol/L of the test compound compared to the EPO production without stimulation (control).
Stimulation rate of EPO production (fold)=(EPO production with addition of test compound)/(EPO production of control)

T1 sequence (Q9H6Z9 whole entry): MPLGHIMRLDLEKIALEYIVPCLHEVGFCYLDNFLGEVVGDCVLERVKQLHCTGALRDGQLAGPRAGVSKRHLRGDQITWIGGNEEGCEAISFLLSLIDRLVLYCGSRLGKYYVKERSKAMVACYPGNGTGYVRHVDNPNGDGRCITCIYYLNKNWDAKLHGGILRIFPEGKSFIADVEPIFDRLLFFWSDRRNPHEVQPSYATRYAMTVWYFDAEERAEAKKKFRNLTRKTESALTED

Row | IC50 (human HIF-PHD3) | IC50 (human HIF-PHD2) | SMILES | fold induction at 3 µM (Hep3B cells)
1 | 780 nM | 27 nM | O=C(O)c1cnn(-c2nc(O)c3c(cnn3Cc3cc(C(F)(F)F)cc(Cl)c3F)n2)c1 [Example 4] | 1.7
2 | 740 nM | 130 nM | O=C(O)c1cnn(-c2nc(O)c3c(cnn3Cc3ccc(Cl)cc3F)n2)c1 [Example 5] | 2.9
3 | 130 nM | 41 nM | O=C(O)c1cnn(-c2nc(O)c3c(cnn3Cc3ccc(C(F)(F)F)c(Cl)c3)n2)c1 [Example 6] | 6.1
4 | 320 nM | 23 nM | O=C(O)c1cnn(-c2nc(O)c3c(cnn3Cc3ccc(Cl)c(F)c3)n2)c1 [Example 7] | 3.4
5 | 560 nM | 48 nM | O=C(O)c1cnn(-c2nc(O)c3c(cnn3Cc3cc(F)cc(C(F)(F)F)c3)n2)c1 [Example 8] | 5.4
6 | 410 nM | 33 nM | O=C(O)c1cnn(-c2nc(O)c3c(cnn3Cc3cccc(C(F)(F)F)c3)n2)c1 [Example 9] | 2.8
7 | 240 nM | 22 nM | O=C(O)c1cnn(-c2nc(O)c3c(cnn3Cc3ccc(F)c(Cl)c3)n2)c1 [Example 10] | 3.4
8 | 470 nM | 62 nM | O=C(O)c1cnn(-c2nc(O)c3c(cnn3Cc3cccc(OC(F)(F)F)c3)n2)c1 [Example 11] | 2.5
9 | > 3000 nM | 44 nM | O=C(O)c1cnn(-c2nc(O)c3c(cnn3Cc3ccc(F)c(C(F)(F)F)c3)n2)c1 [Example 12] | 2.3
10 | 230 nM | 20 nM | O=C(O)c1cnn(-c2nc(O)c3c(cnn3Cc3ccc(Cl)cc3)n2)c1 [Example 13] | 4.3
11 | 280 nM | 31 nM | O=C(O)c1cnn(-c2nc(O)c3c(cnn3Cc3ccc(F)c(Br)c3)n2)c1 [Example 14] | 1.4
12 | 290 nM | 52 nM | O=C(O)c1cnn(-c2nc(O)c3c(cnn3Cc3cc(F)cc(Br)c3)n2)c1 [Example 15] | 1.7
13 | 820 nM | 66 nM | C[C@H](c1ccccc1)n1ncc2nc(-n3cc(C(=O)O)cn3)nc(O)c21 [Example 16] | 3.1
14 | 480 nM | 65 nM | C[C@@H](c1ccccc1)n1ncc2nc(-n3cc(C(=O)O)cn3)nc(O)c21 [Example 17] | 3.2
15 | 450 nM | 35 nM | C[C@@H](c1ccc(F)cc1)n1ncc2nc(-n3cc(C(=O)O)cn3)nc(O)c21 [Example 18] | 5.6
16 | 720 nM | 26 nM | C[C@@H](c1ccc(C(F)(F)F)cc1)n1ncc2nc(-n3cc(C(=O)O)cn3)nc(O)c21 [Example 19] | 10
17 | 1200 nM | 65 nM | C[C@H](c1ccc(Cl)cc1)n1ncc2nc(-n3cc(C(=O)O)cn3)nc(O)c21 [Example 20] | 5.5
18 | 520 nM | 17 nM | C[C@@H](c1ccc(Cl)cc1)n1ncc2nc(-n3cc(C(=O)O)cn3)nc(O)c21 [Example 21] | 7.5
19 | 990 nM | 44 nM | CC[C@@H](c1ccccc1)n1ncc2nc(-n3cc(C(=O)O)cn3)nc(O)c21 [Example 24] | 2.8
20 | 2900 nM | 70 nM | Cc1ccc(C(C(C)C)n2ncc3nc(-n4cc(C(=O)O)cn4)nc(O)c32)cc1 (stereo not drawn) [Example 25] | 2.9
21 | 2600 nM | 20 nM | O=C(O)c1cnn(-c2nc(O)c3c(cnn3C(c3ccc(Cl)cc3)c3ccc(Cl)cc3)n2)c1 [Example 27] | 26
22 | 200 nM | 37 nM | O=C(O)c1cnn(-c2nc(O)c3c(cnn3Cc3ccc4ccccc4c3)n2)c1 [Example 29] | 4.2
23 | 460 nM | 72 nM | C[C@H](c1ccc2ccccc2c1)n1ncc2nc(-n3cc(C(=O)O)cn3)nc(O)c21 [Example 30] | 5.5
24 | 270 nM | 13 nM | C[C@@H](c1ccc2ccccc2c1)n1ncc2nc(-n3cc(C(=O)O)cn3)nc(O)c21 [Example 31] | 4.7
25 | 320 nM | 14 nM | O=C(O)c1cnn(-c2nc(O)c3c(cnn3Cc3ccc4cc(F)ccc4c3)n2)c1 [Example 32] | 5.7

Row | IC50 (human HIF-PHD3) | IC50 (human HIF-PHD2) | SMILES | fold induction at 3 µM (Hep3B cells)
26 | 240 nM | 17 nM | O=C(O)c1cnn(-c2nc(O)c3c(cnn3Cc3ccc4ccccc4c3F)n2)c1 [Example 34] | 1.2
27 | 250 nM | 18 nM | Cc1c(Cn2ncc3nc(-n4cc(C(=O)O)cn4)nc(O)c32)ccc2ccccc12 [Example 35] | 5.7
28 | 170 nM | 15 nM | O=C(O)c1cnn(-c2nc(O)c3c(cnn3Cc3ccc4c(c3)CCCC4)n2)c1 [Example 36] | 1.4
29 | 120 nM | 26 nM | O=C(O)c1cnn(-c2nc(O)c3c(cnn3Cc3ccc(C4CCCCC4)cc3)n2)c1 [Example 37] | 8.3
30 | 1800 nM | 150 nM | O=C(O)c1cnn(-c2nc(O)c3c(cnn3Cc3ccccc3-c3ccccc3)n2)c1 [Example 38] | 2.9
31 | 350 nM | 25 nM | O=C(O)c1cnn(-c2nc(O)c3c(cnn3Cc3cccc(-c4ccccc4)c3)n2)c1 [Example 39] | 5
32 | 140 nM | 11 nM | O=C(O)c1cnn(-c2nc(O)c3c(cnn3Cc3cccc(-c4ccc(F)cc4)c3)n2)c1 [Example 40] | 5
33 | 340 nM | 22 nM | O=C(O)c1cnn(-c2nc(O)c3c(cnn3Cc3cccc(-c4ccc(C(F)(F)F)cc4)c3)n2)c1 [Example 41] | 9.5
34 | 1400 nM | 14 nM | COc1ccc(-c2cccc(Cn3ncc4nc(-n5cc(C(=O)O)cn5)nc(O)c43)c2)cc1 [Example 42] | 9.1
35 | 200 nM | 15 nM | O=C(O)c1cnn(-c2nc(O)c3c(cnn3Cc3cccc(-c4ccc(OC(F)(F)F)cc4)c3)n2)c1 [Example 43] | 6.5
36 | 390 nM | 49 nM | O=C(O)c1cnn(-c2nc(O)c3c(cnn3Cc3cccc(-c4cccc(F)c4)c3)n2)c1 [Example 44] | 4.9
37 | 170 nM | 50 nM | O=C(O)c1cnn(-c2nc(O)c3c(cnn3Cc3cccc(-c4cccc(C(F)(F)F)c4)c3)n2)c1 [Example 45] | 8.9
38 | 85 nM | 68 nM | O=C(O)c1cnn(-c2nc(O)c3c(cnn3Cc3cccc(-c4ccccc4F)c3)n2)c1 [Example 46] | 3.7
39 | 650 nM | 77 nM | O=C(O)c1cnn(-c2nc(O)c3c(cnn3Cc3cccc(-c4ccccc4C(F)(F)F)c3)n2)c1 [Example 47] | 4.4
40 | 340 nM | 70 nM | Cc1cccc(C)c1-c1cccc(Cn2ncc3nc(-n4cc(C(=O)O)cn4)nc(O)c32)c1 [Example 48] | 6.6
41 | 200 nM | 30 nM | O=C(O)c1cnn(-c2nc(O)c3c(cnn3Cc3cc(-c4ccccc4)ccc3F)n2)c1 [Example 49] | 7.6
42 | 320 nM | 51 nM | O=C(O)c1cnn(-c2nc(O)c3c(cnn3Cc3cc(F)cc(-c4ccccc4)c3)n2)c1 [Example 50] | 6.3
43 | 190 nM | 34 nM | O=C(O)c1cnn(-c2nc(O)c3c(cnn3Cc3ccc(F)c(-c4ccccc4)c3)n2)c1 [Example 51] | 3.9
44 | 250 nM | 22 nM | O=C(O)c1cnn(-c2nc(O)c3c(cnn3Cc3cccc(-c4ccccc4)c3F)n2)c1 [Example 52] | 3.3
45 | 410 nM | 25 nM | Cc1ccc(Cn2ncc3nc(-n4cc(C(=O)O)cn4)nc(O)c32)cc1-c1ccccc1 [Example 53] | 3.3
46 | 250 nM | 18 nM | C[C@@H](c1cccc(-c2ccccc2)c1)n1ncc2nc(-n3cc(C(=O)O)cn3)nc(O)c21 [Example 54] | 5.6
47 | 260 nM | 16 nM | O=C(O)c1cnn(-c2nc(O)c3c(cnn3Cc3ccc(-c4ccccc4F)cc3)n2)c1 [Example 56] | 19
48 | 130 nM | 15 nM | Cc1ccccc1-c1ccc(Cn2ncc3nc(-n4cc(C(=O)O)cn4)nc(O)c32)cc1 [Example 57] | 9.1
49 | 65 nM | 21 nM | CCc1ccccc1-c1ccc(Cn2ncc3nc(-n4cc(C(=O)O)cn4)nc(O)c32)cc1 [Example 58] | 9.3
